Reference: patent US4051315A, “6"-Deoxykanamycin B and 6"-deoxytobramycin” (priority 1975, dated 1977)
In brackets after ≈: the same amount, converted by molar mass. Where two headings read alike, the source gives them in different places.

How the values were obtained:
Assay type in all cases: cell-based
[1] = system: P. stuartii A20894 GAT-2; assay: two-fold agar dilution MIC, Ps-2
[2] = system: P. aeruginosa GN-315 KAT; assay: two-fold agar dilution MIC, Pa-27
[3] = system: E. coli JR88 CAT-1; assay: two-fold agar dilution MIC, Ec-62
[4] = system: E. coli NR79/W677 KAT; assay: two-fold agar dilution MIC, Ec-9; settings: Escherichia coli, NR79/W677KAT
[5] = system: S. marcescens A20019; assay: two-fold agar dilution MIC, Sm-1; settings: Serratia marcescens
[6] = system: E. coli R5 KAT; assay: two-fold agar dilution MIC, Ec-55
[7] = system: P. aeruginosa A9930; assay: two-fold agar dilution MIC, Pa-3; settings: Pseudomonas aeruginosa
[8] = system: E. coli A20732 GAS; assay: two-fold agar dilution MIC, Ec-72; settings: Escherichia coli, A20732GAS
[9] = system: P. mirabilis A9554 CL-R; assay: two-fold agar dilution MIC, Pm-1
[10] = system: P. vulgaris A9436; assay: two-fold agar dilution MIC, Pv-1
[11] = system: E. coli JR66/W677 NPT-2, GAS; assay: two-fold agar dilution MIC, Ec-53
[12] = system: Pseudomonas sp. A20621 KAT, NPT-1,2; assay: two-fold agar dilution MIC, Px-10
[13] = system: P. aeruginosa GN-4925; assay: two-fold agar dilution MIC, Pa-45; settings: Pseudomonas aeruginosa
[14] = system: S. aureus D133 SH, Sth-R; assay: two-fold agar dilution MIC, Sa-4
[15] = system: P. aeruginosa #130 GAT-1, NPT; assay: two-fold agar dilution MIC, Pa-16
[16] = system: E. coli ML1630 NPT-1; assay: two-fold agar dilution MIC, Ec-5; settings: Escherichia coli
[17] = system: P. aeruginosa A20601 GAT-1; assay: two-fold agar dilution MIC, Pa-21; settings: Pseudomonas aeruginosa
[18] = system: B. subtilis PCT-219; assay: two-fold agar dilution MIC, Bs-1; settings: Bacillus subtilis
[19] = system: P. aeruginosa A20896 GAT-3; assay: two-fold agar dilution MIC, Pa-24
[20] = system: E. coli P01495 CP.TC-R; assay: two-fold agar dilution MIC, Ec-2; settings: Escherichia coli, P01495CP.TCR
[21] = system: K. pneumoniae D11; assay: two-fold agar dilution MIC, Kp-1; settings: Klebsiella pneumoniae
[22] = system: E. coli NIHJ; assay: two-fold agar dilution MIC, Ec-1
[23] = system: E. coli JR35/C600 NPT-1; assay: two-fold agar dilution MIC, Ec-10
[24] = system: S. aureus D137 PC, TC, EM-R; assay: two-fold agar dilution MIC, Sa-9
[25] = system: K. pneumoniae 22-3038 NPT-2, GAS; assay: two-fold agar dilution MIC, Kp-8
[26] = system: S. aureus A20239 NPT-1,2; assay: two-fold agar dilution MIC, Sa-10; settings: Run 2; Sa-10
[27] = system: S. aureus Smith; assay: two-fold agar dilution MIC, Sa-2; settings: Staphylococcus aureus
[28] = system: E. coli A20107 NPT-2; assay: two-fold agar dilution MIC, Ec-49; settings: Escherichia coli
[29] = system: E. cloacae A21006 NPT-2; assay: two-fold agar dilution MIC, E1-12
[30] = system: E. cloacae A20364 NPT-1; assay: two-fold agar dilution MIC, E1-2; settings: Enterobacter cloacae
[31] = system: S. marcescens A21247 NPT-1, GAS; assay: two-fold agar dilution MIC, Sm-16; settings: Serratia marcescens
[32] = system: P. aeruginosa A20653 NPT-1,2; assay: two-fold agar dilution MIC, Pa-12; settings: Pseudomonas aeruginosa
[33] = Staphylococcus aureus, Run 1, read-out: MIC

NCC1OC(OC2C(N)CC(N)C(OC3OC(CO)C(O)C(N)C3O)C2O)C(N)CC1O (stereo not drawn) [tobramycin, 3'-deoxykanamycin B]
MIC ([1]; Providencia stuartii, A20894GAT2): 12.5 mg/L (≈ 26.7 µM)
MIC ([1]; Run 2, Ps-2): 12.5 mg/L (≈ 26.7 µM)
MIC ([2]; Pseudomonas aeruginosa, GN315, Run 1, read-out: MIC): > 100 mg/L
MIC ([2]; Run 2): > 100 mg/L
MIC ([3]; Escherichia coli, JR88CAT1): 1.6 mg/L (≈ 3.42 µM)
MIC ([3]; Run 2, Ec-62): 1.6 mg/L (≈ 3.42 µM)
MIC ([4]; Run 1): 1.6 mg/L (≈ 3.42 µM)
MIC ([4]; Run 2): 0.8 mg/L (≈ 1.71 µM)
MIC ([5]; A20019, Run 1, read-out: MIC): 6.3 mg/L (≈ 13.5 µM)
MIC ([5]; A20019, Run 2): 12.5 mg/L (≈ 26.7 µM)
MIC ([6]; Escherichia coli, R5KAT): 0.8 mg/L (≈ 1.71 µM)
MIC ([6]; Run 2, Ec-55): 0.8 mg/L (≈ 1.71 µM)
MIC ([7]; A9930, Run 1): 0.4 mg/L (≈ 0.856 µM)
MIC ([7]; A9930, Run 2): 0.8 mg/L (≈ 1.71 µM)
MIC ([8]; Run 1): 50 mg/L (≈ 107 µM)
MIC ([8]; Run 2): 1.6 mg/L (≈ 3.42 µM)
MIC ([9]; Proteus mirabilis, A9554CLR, Run 1, read-out: MIC): 0.8 mg/L (≈ 1.71 µM)
MIC ([9]; Run 2): 0.8 mg/L (≈ 1.71 µM)
MIC ([10]; Proteus vulgaris, A9436, Run 1, read-out: MIC): 0.4 mg/L (≈ 0.856 µM)
MIC ([10]; Run 2): 0.4 mg/L (≈ 0.856 µM)
MIC ([11]; Escherichia coli): 25 mg/L (≈ 53.5 µM)
MIC ([11]; Run 2, Ec-53): 25 mg/L (≈ 53.5 µM)
MIC ([12]; Pseudomonas, Run 1, read-out: MIC): 25 mg/L (≈ 53.5 µM)
MIC ([12]; Run 2): 25 mg/L (≈ 53.5 µM)
MIC ([13]; GN4925, Run 1): 100 mg/L (≈ 214 µM)
MIC ([13]; GN4925, Run 2): 50 mg/L (≈ 107 µM)
MIC ([14]; Run 2): 1.6 mg/L (≈ 3.42 µM)
MIC [14, 33]: 1.6 mg/L (≈ 3.42 µM)
MIC ([15]; Pseudomonas aeruginosa, Run 1, read-out: MIC): 3.1 mg/L (≈ 6.63 µM)
MIC ([15]; Run 2): 3.1 mg/L (≈ 6.63 µM)
MIC ([16]; ML1630NPT1, Run 1): 1.6 mg/L (≈ 3.42 µM)
MIC ([16]; ML1630NPT1, Run 2): 0.8 mg/L (≈ 1.71 µM)
MIC ([17]; A20601GAT1, Run 1): 3.1 mg/L (≈ 6.63 µM)
MIC ([17]; A20601GAT1, Run 2): 1.6 mg/L (≈ 3.42 µM)
MIC ([18]; PCT219, Run 1): 0.2 mg/L (≈ 0.428 µM)
MIC ([18]; PCT219, Run 2): < 0.05 mg/L
MIC ([19]; Pseudomonas aeruginosa, A20896GAT3, Run 1, read-out: MIC): > 100 mg/L
MIC ([19]; Run 2): > 100 mg/L
MIC ([20]; Run 1): 1.6 mg/L (≈ 3.42 µM)
MIC ([20]; Run 2): 0.8 mg/L (≈ 1.71 µM)
MIC ([21]; D11, Run 1): 0.4 mg/L (≈ 0.856 µM)
MIC ([21]; D11, Run 2): 0.8 mg/L (≈ 1.71 µM)
MIC ([22]; Escherichia coli, Run 1, read-out: MIC): 0.8 mg/L (≈ 1.71 µM)
MIC ([22]; Run 2): 0.8 mg/L (≈ 1.71 µM)
MIC ([23]; Escherichia coli, JR35/C600NPT1): 1.6 mg/L (≈ 3.42 µM)
MIC ([23]; Run 2, Ec-10): 1.6 mg/L (≈ 3.42 µM)
MIC ([24]; Run 2): 3.1 mg/L (≈ 6.63 µM)
MIC [24, 33]: 3.1 mg/L (≈ 6.63 µM)
MIC ([25]; Klebsiella pneumoniae, Run 1, read-out: MIC): 25 mg/L (≈ 53.5 µM)
MIC ([25]; Run 2): 25 mg/L (≈ 53.5 µM)
MIC [26]: 1.6 mg/L (≈ 3.42 µM)
MIC ([27]; Run 1): 0.4 mg/L (≈ 0.856 µM)
MIC ([27]; Run 2): 0.2 mg/L (≈ 0.428 µM)
MIC ([28]; A20107NPT2, Run 1): 1.6 mg/L (≈ 3.42 µM)
MIC ([28]; A20107NPT2, Run 2): 1.6 mg/L (≈ 3.42 µM)
MIC ([29]; Enterobacter cloacae, A21006NPT2): 1.6 mg/L (≈ 3.42 µM)
MIC ([29]; Run 2, E1-12): 1.6 mg/L (≈ 3.42 µM)
MIC ([30]; A20364NPT1, Run 1): 50 mg/L (≈ 107 µM)
MIC ([30]; A20364NPT1, Run 2): 1.6 mg/L (≈ 3.42 µM)
MIC ([31]; Run 1): 50 mg/L (≈ 107 µM)
MIC ([31]; Run 2): 50 mg/L (≈ 107 µM)
MIC ([32]; Run 1): 6.3 mg/L (≈ 13.5 µM)
MIC ([32]; Run 2): 3.1 mg/L (≈ 6.63 µM)
